Reference: ChEMBL document CHEMBL4002633, “Synthesis, evaluation and quantitative structure-activity relationship (QSAR) analysis of Wogonin derivatives as cytotoxic agents” (Bioorg Med Chem Lett, 2017)
pIC50: −log10 of the molar value.

Experiments:
HepG2 [1] = assay: Cytotoxicity against human HepG2 cells assessed as reduction in cell viability after 48 hrs by MTT assay; type: functional, cell-based; conditions: HepG2, 48 h; for pIC50: read-out: IC50; for IC50: read-out: pIC50 (converted)
A549 [2] = assay: Cytotoxicity against human A549 cells assessed as reduction in cell viability after 48 hrs by MTT assay; type: functional, cell-based; conditions: A549, 48 h
[3] = Cytotoxicity against human BCG823 cells assessed as reduction in cell viability after 48 hrs by MTT assay; type: functional, cell-based; conditions: BCG823, 48 h
HepG2 [4] = assay: Potency index, ratio of 5-fluorouracil IC50 to compound IC50 for human HepG2 cells; type: functional
A549 [5] = assay: Potency index, ratio of 5-fluorouracil IC50 to compound IC50 for human A549 cells; type: functional
[6] = Potency index, ratio of 5-fluorouracil IC50 to compound IC50 for human BCG823 cells; type: functional

SMILES	pIC50 (HepG2 [1])	IC50 (HepG2 [1]) [µM]	pIC50 (A549 [2])	pIC50 [3]	Ratio IC50 (HepG2 [4])	Ratio IC50 (A549 [5])	Ratio IC50 [6]
COc1c(OCc2ncc(C)o2)cc(O)c2c(=O)cc(-c3ccccc3)oc12	4.69	20.4	< 4.00	–	–	–	–
COc1c(OCCCCN2CCNCC2)cc(O)c2c(=O)cc(-c3ccccc3)oc12	5.97	1.07	5.76	6.01	18	9	17
O=c1cc(-c2ccccc2)oc2c(OCCCCNC3CCCCC3)c(O)cc(O)c12	4.96	11	–	4.31	–	–	–
COc1c(O)cc(O)c2c(=O)cc(-c3ccc(Cl)cc3)oc12	4.47	33.9	–	–	–	–	–
COc1c(OCCCNCc2ccccc2)cc(O)c2c(=O)cc(-c3ccccc3)oc12	5.09	8.13	5.80	5.00	–	–	–
COc1c(OCCCCN(CCO)CCO)cc(O)c2c(=O)cc(-c3ccccc3)oc12	5.58	2.63	5.90	5.23	–	–	–
CCN(CC)CCCOc1c(O)cc(O)c2c(=O)cc(-c3ccccc3)oc12	4.17	67.6	< 4.00	–	–	–	–
O=c1cc(-c2ccccc2)oc2c(OCCN3CCOCC3)c(O)cc(O)c12	4.40	39.8	< 4.00	–	–	–	–
COc1c(O)cc(O)c2c(=O)cc(-c3ccc(F)cc3Br)oc12	4.47	33.9	–	–	–	–	–
O=c1cc(-c2ccccc2)oc2c(OCCCCN3CCOCC3)c(O)cc(O)c12	4.82	15.1	4.08	–	–	–	–
CN(C)CCOc1c(O)cc(O)c2c(=O)cc(-c3ccccc3)oc12	4.40	39.8	< 4.00	–	–	–	–
CNCCCCOc1c(O)cc(O)c2c(=O)cc(-c3ccccc3)oc12	4.01	97.7	–	< 4.00	–	–	–
COc1c(OCCCCN2CCN(C)CC2)cc(O)c2c(=O)cc(-c3ccccc3)oc12	5.95	1.12	5.82	5.28	–	–	–
CC(C)NCCCCOc1c(O)cc(O)c2c(=O)cc(-c3ccccc3)oc12	4.52	30.2	–	4.15	–	–	–
COc1c(OCCCN2CCOCC2)cc(O)c2c(=O)cc(-c3ccccc3)oc12	5.19	6.46	5.64	5.43	–	–	–
CC(C)NCCOc1c(O)cc(O)c2c(=O)cc(-c3ccccc3)oc12	4.85	14.1	–	< 4.00	–	–	–
O=c1cc(-c2ccccc2)oc2c(OCCCN3CCOCC3)c(O)cc(O)c12	4.67	20.9	< 4.00	–	–	–	–
CCCNCCCCOc1c(O)cc(O)c2c(=O)cc(-c3ccccc3)oc12	5.00	10	–	4.29	–	–	–
CCN(CC)CCOc1c(O)cc(O)c2c(=O)cc(-c3ccccc3)oc12	4.17	67.6	< 4.00	–	–	–	–
CCN(CC)CCCCOc1cc(O)c2c(=O)cc(-c3ccccc3)oc2c1OC	5.76	1.74	6.00	5.21	–	–	–
CN(C)CCCCOc1c(O)cc(O)c2c(=O)cc(-c3ccccc3)oc12	4.45	35.5	< 4.00	–	–	–	–
COc1c(OCc2cnoc2C)cc(O)c2c(=O)cc(-c3ccccc3)oc12	4.66	21.9	< 4.00	–	–	–	–
CN(C)CCCOc1c(O)cc(O)c2c(=O)cc(-c3ccccc3)oc12	4.38	41.7	< 4.00	–	–	–	–
COc1c(OCCCN(CCO)CCO)cc(O)c2c(=O)cc(-c3ccccc3)oc12	5.42	3.8	5.52	5.19	–	–	–
CC(CO)NCCOc1c(O)cc(O)c2c(=O)cc(-c3ccccc3)oc12 (stereo not given)	4.36	43.7	–	4.04	–	–	–
CNCCOc1c(O)cc(O)c2c(=O)cc(-c3ccccc3)oc12	4.19	64.6	–	4.22	–	–	–

SMILES	pIC50 (HepG2 [1])	IC50 (HepG2 [1]) [µM]	pIC50 (A549 [2])	pIC50 [3]	Ratio IC50 (HepG2 [4])	Ratio IC50 (A549 [5])	Ratio IC50 [6]
COc1c(OCCCN2CCN(C)CC2)cc(O)c2c(=O)cc(-c3ccccc3)oc12	4.50	31.6	5.00	4.28	–	–	–
COc1c(OCCCCN2CCCC2)cc(O)c2c(=O)cc(-c3ccccc3)oc12	5.44	3.63	5.82	5.20	–	–	–
COc1c(OCCCCN2CCCCC2)cc(O)c2c(=O)cc(-c3ccccc3)oc12	5.71	1.95	5.94	4.74	–	–	–
O=c1cc(-c2ccccc2)oc2c(OCCCN3CCCC3)c(O)cc(O)c12	4.23	58.9	< 4.00	–	–	–	–
CN1CCN(CCOc2c(O)cc(O)c3c(=O)cc(-c4ccccc4)oc23)CC1	4.25	56.2	< 4.00	–	–	–	–
COc1c(OCCCCNCc2ccccc2)cc(O)c2c(=O)cc(-c3ccccc3)oc12	4.34	45.7	5.34	4.32	–	–	–
COc1c(O)cc(O)c2c(=O)cc(-c3ccc(F)cc3)oc12	4.36	43.7	–	–	–	–	–
COc1c(O)cc(O)c2c(=O)cc(-c3ccc(C)cc3)oc12	4.60	25.1	–	–	–	–	–
CN1CCN(CCCOc2c(O)cc(O)c3c(=O)cc(-c4ccccc4)oc23)CC1	4.37	42.7	< 4.00	–	–	–	–
COc1c(OCCCN2CCCC2)cc(O)c2c(=O)cc(-c3ccccc3)oc12	4.81	15.5	5.86	4.75	–	–	–
COc1c(O)cc(O)c2c(=O)cc(-c3ccc(Br)cc3)oc12	4.42	38	–	–	–	–	–
O=c1cc(-c2ccccc2)oc2c(OCCN3CCCC3)c(O)cc(O)c12	4.16	69.2	4.17	–	–	–	–
COc1c(OCc2nc3ccccc3[nH]2)cc(O)c2c(=O)cc(-c3ccccc3)oc12	4.53	29.5	< 4.00	–	–	–	–
COc1c(OCCCN2CCNCC2)cc(O)c2c(=O)cc(-c3ccccc3)oc12	5.04	9.12	5.00	4.92	–	–	–
CN1CCN(CCCCOc2c(O)cc(O)c3c(=O)cc(-c4ccccc4)oc23)CC1	4.82	15.1	< 4.00	–	–	–	–
CCCCNCCCCOc1c(O)cc(O)c2c(=O)cc(-c3ccccc3)oc12	4.41	38.9	–	4.21	–	–	–
COc1c(O)cc(O)c2c(=O)cc(-c3cccc(F)c3)oc12	4.23	58.9	–	–	–	–	–
CCN(CC)CCCOc1cc(O)c2c(=O)cc(-c3ccccc3)oc2c1OC	5.48	3.31	5.74	4.88	–	–	–
O=c1cc(-c2ccccc2)oc2c(OCCNCCO)c(O)cc(O)c12	4.24	57.5	–	4.22	–	–	–
CCCCNCCOc1c(O)cc(O)c2c(=O)cc(-c3ccccc3)oc12	4.24	57.5	–	4.14	–	–	–
COc1c(OCCCCN2CCOCC2)cc(O)c2c(=O)cc(-c3ccccc3)oc12	5.48	3.31	5.82	5.28	–	–	–
CCCNCCOc1c(O)cc(O)c2c(=O)cc(-c3ccccc3)oc12	4.01	97.7	–	4.20	–	–	–
O=c1[nH]cc(F)c(=O)[nH]1 [FLUOROURACIL]	4.76	–	4.79	5.00	–	–	–
COc1ccc(-c2cc(=O)c3c(O)cc(O)c(OC)c3o2)cc1 [GALANGUSTIN]	4.37	42.7	–	–	–	–	–
COc1c(O)cc(O)c2c(=O)cc(-c3ccccc3)oc12 [WOGONIN]	4.72	19.1	4.80	4.78	–	–	–
